Laboratory results reported in patent US10889569B2, “Condensed ring group azacyclobutyl triazole derivative, preparation method therefor and use thereof in medicine” (Jiangsu Hengrui Medicine Co., Ltd., priority 2016, dated 2021).

How the values were obtained:
Type in all cases: cell-based
[1] = biological target: human OTR (Homo sapiens, UniProt P30559); assay: Inhibition activity on human OTR (Fluo-4 calcium assay, HEK293/human OTR stably transfected cells); conditions: oxytocin 3 nM
In short: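 HEK293 cells stably expressing human OTR, loaded with Fluo-4 for 30 min at 37 °C, were preincubated 10 min at room temperature with compound (stocks 10^1–10^6 nM). Oxytocin (3 nM as added) then triggered calcium signal, read immediately at 494/516; IC50 fitted from fluorescence versus concentration.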

[2] = biological target: human V2R (Homo sapiens (Human), UniProt P30518); assay: Inhibition activity on human V2R (cAMP HTRF assay, HEK293/human V2R pool cells); conditions: vasopressin
Experimental: The inhibition effect of the compounds of the present invention on the activity of human V2R protein expressed in HEK293/human V2R cells was determined by the following experimental method:
The pcDNA3.1-V2R plasmid was transferred into HEK293 cells with the Lipofectamine® 3000 transfection reagent; G418 was added on the next day, and the HEK293/human V2R pool cell lines were obtained.
HEK293/human V2R pool cells were dissociated with the cell dissociation solution (enzyme-free), thereby dissociating the cells from the cell culture dish into individual cells. Then the cell solution was blown well, and centrifuged to remove the supernatant. The cells were resuspended in the test buffer 1 (1×HBSS+20 mM HEPES+0.1% BSA) and counted. The cell density was adjusted to 1250 cells/5 μl, i.e., 2.5*10^5/ml.
The compounds were formulated into a series of concentrations of 20 mM, 6.67 mM, 2.22 mM, 0.74 mM, 0.25 mM, 0.08 mM, 27.4 μM, 9.14 μM, 3.05 μM, 1.02 μM, 0.34 μM and 0 μM (DMSO) with pure DMSO. The compounds were then diluted into a 4-fold working concentration solution with the test buffer 2 (test buffer 1+1 mM IBMX).
Agonist: 460 μM vasopressin was used as the mother liquor, which was formulated at 2 μM with DMSO, and then diluted to 0.5 nM with the test buffer 2.
Standards: The first point was 20 μl of a stock solution (2848 nM), which was diluted successively to a total of eleven concentrations in a 4-fold concentration gradient with the test buffer 1 from the second point.
1. The well-mixed cells were added to a 384-well plate (5 μl/well) without changing the tip.
2. The test compounds and positive compound formulated were added (2.5 μl/well), and the tips were changed.
3. The plate was centrifuged at 1000 rpm for 1 min, shaken for 30 sec to mix well, and incubated at room temperature for 30 min.
4. The standard curve wells were added with the test buffer 2 (5 μl/well).
5. The formulated agonist was added (2.5 μl/well), and the tips were changed; the plate was centrifuged at 1000 rpm for 1 min, shaken for 30 sec to mix well, and incubated at room temperature for 30 min.
6. cAMP-d2 (a component in the cAMP dynamic 2 kit) and Anti-cAMP-Eu-Cryptate (a component in the cAMP dynamic 2 kit) were formulated in the dark, which were then mixed well with cAMP lysate (a component in the cAMP dynamic 2 kit) in a ratio of 1:4. Each well was added with the formulated cAMP-d2 solution (5 μl/well), followed by addition of Anti-cAMP-Eu-Cryptate (5 μl/well). The plate was shaken for 30 sec to mix well, and incubated in the dark at room temperature for 1 h.
The HTRF Signals were Read by the PheraStar Multi-Function Microplate Reader.
The data in this test was processed using the data processing software Graphpad Prism.
The inhibition activity of the compounds of the present invention on human V2R was determined by the above test, and the IC50 values obtained are shown in Table 4.

[3] = biological target: human V1bR (Homo sapiens, UniProt P47901); assay: Inhibition activity on human V1bR (Fluo-4 calcium assay, HEK293/human V1bR pool cells); conditions: vasopressin 3 nM
Experimental: The inhibition effect of the compounds of the present invention on the activity of human V1bR protein expressed in HEK293/human V1bR cells was determined by the following experimental method:
The pcDNA3.1-V1bR plasmid was transferred into HEK293 cells with the Lipofectamine® 3000 transfection reagent; G418 was added on the next day, and the HEK293/human V1bR pool cell lines were obtained.
HEK293/human V1bR pool cells were inoculated in a 96-well plate with an inoculation density of 25,000 cells/well one day in advance. On the next day, a loading buffer containing Fluo-4 dye was formulated using the reagents in the Fluo-4 NW calcium assay kit, and the culture medium was then removed; 100 μl of the loading buffer containing Fluo-4 dye were added to each well, and the plate was incubated at 37° C. for 30 minutes. After that, the plate was moved to room temperature and equilibrated for 10 minutes. The compounds were formulated into 10^6, 10^5, 10^4, 10^3, 10^2 and 10^1 nM. 1 μl of the compounds in each concentration was added to each well, and the plate was incubated at room temperature for 10 minutes. 50 μl of vasopressin polypeptide (3 nM) were automatically added by the machine, and the values were immediately detected at 494/516 nM by the flexstation 3 microplate reader. IC50 values of the compounds were calculated by Graphpad prism software using fluorescence signals corresponding to different concentrations.
The inhibition activity of the compounds of the present invention on human V1bR was determined by the above test, and the obtained IC50 values are shown in Table 3.

Chain of human V2R (P30518 whole entry): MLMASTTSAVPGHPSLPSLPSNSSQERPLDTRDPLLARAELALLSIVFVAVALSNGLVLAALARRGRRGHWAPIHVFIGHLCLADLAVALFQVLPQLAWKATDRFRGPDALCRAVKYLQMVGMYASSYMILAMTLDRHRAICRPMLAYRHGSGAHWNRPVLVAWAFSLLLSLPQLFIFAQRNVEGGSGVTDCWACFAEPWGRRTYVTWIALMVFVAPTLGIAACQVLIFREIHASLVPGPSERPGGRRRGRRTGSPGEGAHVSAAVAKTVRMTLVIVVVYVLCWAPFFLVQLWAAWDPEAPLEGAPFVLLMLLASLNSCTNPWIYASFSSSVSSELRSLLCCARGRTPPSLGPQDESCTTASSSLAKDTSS

| Structure (SMILES) | IC50 [1] [µM] | IC50 [2] [µM] | IC50 [3] [µM] |
| --- | --- | --- | --- |
| COCc1nnc(N2CC(c3cccc4cc(F)ccc34)C2)n1-c1ccc(OC)nc1 [Example 2, 5-(3-(3-(6-Fluoronaphthalen-1-yl)azetidin-1-yl)-5-(methoxymethyl)-4H-1,2,4-triazol-4-yl)-2-methoxypyridine] | 0.002 | 4.9 | 26 |
| COCc1nnc(N2CC(n3cc(C)c4cc(F)ccc43)C2)n1-c1ccc(OC)nc1 [Example 17, 5-Fluoro-1-(1-(5-(methoxymethyl)-4-(6-methoxypyridin-3-yl)-4H-1,2,4-triazol-3-yl)azetidin-3-yl)-3-methyl-1H-indole] | 0.064 | 10.9 | 19.8 |
